Source: publication PMC2714474, “Extreme variability in the formation of chlorpyrifos oxon (CPO) in patients poisoned by chlorpyrifos (CPF)” (Biochemical Pharmacology, 2009)

What was measured:
CYP3A4 = details: read-out: Km of CPF desulfuration; human hepatic CYP3A4; cited from earlier work
[1] = target: butyrylcholinesterase (BChE; EC 3.1.1.8) (Homo sapiens, UniProt P06276); test: BChE activity in plasma of CPF-poisoned patients; format: in vivo; details: one patient, 70 min after CPF ingestion
butyrylcholinesterase (BChE; EC 3.1.1.8), sequence (P06276 29-602): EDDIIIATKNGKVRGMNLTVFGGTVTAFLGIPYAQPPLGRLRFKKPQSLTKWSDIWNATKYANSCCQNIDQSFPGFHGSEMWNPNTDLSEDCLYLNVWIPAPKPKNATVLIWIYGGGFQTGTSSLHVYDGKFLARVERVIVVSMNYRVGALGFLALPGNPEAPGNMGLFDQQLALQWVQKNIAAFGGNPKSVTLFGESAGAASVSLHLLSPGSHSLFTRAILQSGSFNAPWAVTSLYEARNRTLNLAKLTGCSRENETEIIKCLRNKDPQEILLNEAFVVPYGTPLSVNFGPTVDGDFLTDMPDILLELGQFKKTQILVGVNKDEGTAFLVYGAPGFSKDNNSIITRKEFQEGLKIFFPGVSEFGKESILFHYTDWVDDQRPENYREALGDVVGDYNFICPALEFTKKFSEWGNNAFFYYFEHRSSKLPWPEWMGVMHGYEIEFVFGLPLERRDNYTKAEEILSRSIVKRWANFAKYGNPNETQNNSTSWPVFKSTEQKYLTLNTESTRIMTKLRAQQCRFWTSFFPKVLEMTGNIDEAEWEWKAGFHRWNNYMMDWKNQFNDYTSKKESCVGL
Experimental: (§1) Laboratory analyses were conducted in Munich, Germany. AChE activity was determined in native RBCs (AChE in vivo) and after reactivation with supra-therapeutic obidoxime (AChE in vitro) to estimate the reactivatable fraction. These assays were performed using a modified Ellman assay as described. BChE activity and inhibitory activity of plasma were assessed as reported. In short, inhibitory activity of patient plasma was tested by incubating 3 volumes of hemolysate (3 g Hb/100 mL 0.1 M phosphate buffer, pH 7.4; washed red blood cells from a healthy donor) with 1 volume of patient plasma at 37 °C for 60 min.

[2] = Plasma CPF concentration in CPF-poisoned patients (HPLC)
Experimental: (§2) Serial blood samples stem from patients with acute chlorpyrifos poisoning who were enrolled in two randomised controlled studies (RCT1: ISRCTN02920054 and RCT2: ISRCTN55264358). The studies were performed in Sri Lankan hospitals in Anuradhapura and Polonnaruwa aimed at evaluating the efficacy of oral superactivated charcoal (RCT 1) or pralidoxime (RCT 2) in symptomatic organophosphorus pesticide poisoning. Additional patients were recruited in a prospective cohort study in Nuwara Eliya that was assessing changes in neuromuscular junctional function in organophosphorus pesticide poisoning. […] Treatment consisted of fluid resuscitation and atropine as described [15] and pralidoxime chloride 1 g every 6 for 48 h (RCT1 and Nuwara Eliya cohort), although there was no strict adherence to this regimen. Patients in RCT2 were randomised to receive pralidoxime (2 g pralidoxime chloride loading dose over 20 min, then 0.5 g/h until a maximum of 7 days) or an equal volume of normal saline in addition to the supportive therapy mentioned above. The blood samples were collected between 25 May 2004 and 18 October 2006.
(§3) Blood samples were collected into tubes containing EDTA prior to pralidoxime, then at 1, 4, 12, and 24 h after administration, then once daily until discharge or death. A 0.2 mL blood sample was diluted at the bedside immediately after collection with 4 mL of ice-cold saline and frozen to −23 °C until analysis of AChE activity. The remaining sample was promptly centrifuged and the aspirated plasma frozen at −23 °C until analysis of BChE activity, inhibitory activity, and the concentration of CPF and CPO [15].
CPF was determined by reversed phase HPLC with detection at 288 nm. Specifically, 0.5 mL plasma was mixed with 10 μL of 500 μM fenitrothion as internal standard to control the extraction yield. The plasma was extracted twice with 1 mL n-hexane for 1 min and residual lipoproteins in the combined hexane phases were precipitated with 50 μL 1 M perchloric acid, followed by centrifugation (10.000 rpm for 1 min). The hexane phase was transferred in a borosilica vial and 10 μL of DMSO was added as keeper. Hexane was evaporated at approximately 40 °C for 30 min in a Speed-Vac-Concentrator. The residue was dissolved in 90 μL of methanol:water (70/30, v/v) and 50 μL were applied to LiChrosphere 100 RP-18, 5 μm, 125 mm × 4 mm (E. Merck, Darmstadt, Germany) and eluted at a flow rate of 1 mL/min by gradient elution. […] Typically, fenitrothion was eluted after 3.3 min and chlorpyrifos after 11.5 min. The lower limit of quantification (LOQ) was 0.1 μM in plasma.

[3] = target: T1, RBC acetylcholinesterase (AChE; EC 3.1.1.7) (Homo sapiens, UniProt P22303); test: RBC-AChE activity in CPF-poisoned patients (modified Ellman assay); format: in vivo
T1 construct: from tissue; host or cells: red blood cells (diluted whole blood) of chlorpyrifos-poisoned patients
T1 sequence (P22303 32-617 isoform P22303-2 limits assumed): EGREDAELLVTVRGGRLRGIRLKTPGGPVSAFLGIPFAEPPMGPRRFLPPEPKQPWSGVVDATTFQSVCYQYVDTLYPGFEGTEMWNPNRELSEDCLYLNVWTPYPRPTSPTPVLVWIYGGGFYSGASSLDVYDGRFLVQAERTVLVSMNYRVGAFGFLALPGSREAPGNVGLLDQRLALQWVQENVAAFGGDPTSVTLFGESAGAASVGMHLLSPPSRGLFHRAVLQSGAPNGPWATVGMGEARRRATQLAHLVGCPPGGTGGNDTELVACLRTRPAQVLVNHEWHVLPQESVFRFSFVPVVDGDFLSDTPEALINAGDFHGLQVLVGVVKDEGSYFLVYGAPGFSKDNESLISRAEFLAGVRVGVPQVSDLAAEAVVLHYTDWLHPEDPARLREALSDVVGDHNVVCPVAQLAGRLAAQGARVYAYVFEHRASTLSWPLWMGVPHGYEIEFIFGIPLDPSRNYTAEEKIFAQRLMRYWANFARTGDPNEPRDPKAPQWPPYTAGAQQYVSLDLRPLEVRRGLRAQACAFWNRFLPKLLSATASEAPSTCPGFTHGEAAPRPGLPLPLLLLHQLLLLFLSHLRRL
Experimental: as §1

CYP2B6 = details: read-out: Km of CPF desulfuration; human hepatic CYP2B6; cited from earlier work
BChE = details: cited from earlier work
[4] = system: human diethylphosphoryl-AChE; details: human red blood cells in vitro, cited from earlier work
bovine serum albumin [5] = test: Hydrolysis / inactivation of CPO by serum albumin; format: biochemical; details: 20 nM CPO, 1% albumin in inhibition assay, assuming human serum albumin has similar constants as BSA
[6] = system: human red blood cell AChE; test: Inhibition kinetics of human red blood cell AChE by CPO; format: biochemical; details: 11.3 nM AChE, 20 nM CPO
From the text: The basis for the calculation of free CPO is the equation given below: [E]/[EP+EPOx]=kr/ki×[P]×(1+KD/[Ox]) E = active enzyme; EP = phosphorylated, but unaged enzyme; EPOx = complex of oxime and phosphorylated, but unaged enzyme; [EP + EPOx] is the reactivatable enzyme = AChE in vitro–AChE in vivo; kr is the first-order reactivation rate constant; KD is the dissociation constant of the complex EPOx; ki is the second-order inhibition rate constant; [P] is the oxon concentration; [Ox] is the oxime concentration.
The fraction of active test AChE upon incubation with known amounts of CPO in plasma samples was calculated discretely in 1-min increments using the following equation: E=E0−ki×(E−EP)×0.15×(CPO0−EP), with E0 and CPO0 being the AChE and total CPO concentration at t = 0 (the factor 0.15 corrects for the fraction not bound reversibly to albumin).

[7] = Plasma CPO concentration in CPF-poisoned patients (enzyme-based assay with horse BChE); details: median (IQR)
Experimental: as §2, §3
CPO was determined by an enzyme-based assay as described recently [9]. In short, CPO was extracted with n-pentane and the reconstituted residue titrated with purified horse BChE, allowing an LOQ of 0.5 nM. The data were corrected for 83% recovery of CPO from plasma [9].

bovine serum albumin [8] = details: pH 7.4 and 37 °C, cited from earlier work
[9] = system: human red blood cell AChE; set-up: method as in PMID 15181665; details: cited from earlier work
[10] = Ratio CPO/CPF in plasma of CPF-poisoned patients; format: in vivo, human
From the text: Data were excluded when CPF and/or CPO were below the LOQs or when the time of ingestion or blood sampling was ambiguous. […] In these cases significant post-sampling reactions had to be suspected.

RBC-AChE = target: T2, RBC-AChE (Homo sapiens, UniProt P22303); test: Inhibitory activity of patient plasma towards RBC-AChE of a healthy donor; format: biochemical; details: EDTA-based plasma, absence of pralidoxime
T2 construct: washed red blood cells from a healthy donor; from tissue; host or cells: haemolysate of washed red blood cells from a healthy donor
T2 sequence (P22303 32-617 isoform P22303-2 limits assumed): as above
Experimental: as §1

## CCOP(=S)(OCC)Oc1nc(Cl)c(Cl)cc1Cl [CPF, Chlorpyrifos]
CYP3A4
  Km: ~30 µM
[1]
  BChE activity, of normal: less than 2%
[2]; 0–4 h post poisoning, median (interquartile range), n=52
  CPF plasma concentration: 2.54 (1.6–4.7) μM
[2]; 4–8 h post poisoning, median (IQR), n=67
  CPF plasma concentration: 1.65 (0.7–3.2) μM
[2]; 8–16 h post poisoning, median (IQR), n=59
  CPF plasma concentration: 0.70 (0.4–1.2) μM
[2]; 16–24 h post poisoning, median (IQR), n=30
  CPF plasma concentration: 0.44 (0.3–1.5) μM
[2]; 24–36 h post poisoning, median (IQR), n=45
  CPF plasma concentration: 0.47 (0.3–1.1) μM
[2]; 36–60 h post poisoning, median (IQR), n=41
  CPF plasma concentration: 0.66 (0.2–1.0) μM
[2]; 60–84 h post poisoning, median (IQR), n=27
  CPF plasma concentration: 0.46 (0.2–0.8) μM
[2]; 84–120 h post poisoning, median (IQR), n=28
  CPF plasma concentration: 0.39 (0.2–0.7) μM
[3]; one patient, 70 min after CPF ingestion
  AChE activity, of normal: < 10%
CYP2B6
  Km: ~1 µM

## CCOP(=O)(OCC)Oc1cc(C)nc(C(C)C)n1 [diazoxon, reference compound]
BChE
  reactivity in inhibiting BChE, times less than CPO: 20 times

## C[n+]1ccccc1/C=N/O [pralidoxime]
[4]
  kr, first-order reactivation rate constant: 0.3 min⁻¹
[4]; read-out: KD, dissociation constant of the complex EPOx
  Kd: 330 µM
[3]; patient A, continuous pralidoxime infusion given for 5 days
  AChE reactivation (fraction of active enzyme from reactivatable pool): ~90%

## Chlorpyrifos oxon [CPO]
Bovine serum albumin [5]
  rate of CPO inactivation by albumin: 0.45 nM/min
BChE
  reaction faster with BChE than with AChE: more than 2 orders of magnitude
[6]
  (initial) AChE inhibition rate: 1.35 nM/min
[7]; 0–4 h post CPF poisoning, n=52
  CPO plasma concentration: 10.1 (4.5–22.2) nM
[7]; 4–8 h post CPF poisoning, n=67
  CPO plasma concentration: 11.9 (6.5–21.5) nM
[7]; 8–16 h post CPF poisoning, n=59
  CPO plasma concentration: 12.7 (5.5–22.5) nM
[7]; 16–24 h post CPF poisoning, n=30
  CPO plasma concentration: 9.6 (4.1–30.1) nM
[7]; 24–36 h post CPF poisoning, n=45
  CPO plasma concentration: 14.1 (4.7–34.5) nM
[7]; 36–60 h post CPF poisoning, n=41
  CPO plasma concentration: 16.7 (3.4–68.4) nM
[7]; 60–84 h post CPF poisoning, n=27
  CPO plasma concentration: 22.7 (2.2–59.9) nM
[7]; 84–120 h post CPF poisoning, n=28
  CPO plasma concentration: 7.1 (4.2–40.2) nM
Bovine serum albumin [8]
  Vmax of CPO 'hydrolysis' by bovine serum albumin: 0.9 nmol/min/mg protein
Bovine serum albumin [8]; read-out: Km of CPO 'hydrolysis' by bovine serum albumin
  Km: 400 µM
[9]
  ki, second-order inhibition rate constant: 100000 M⁻¹ s⁻¹
[10]; 0–4 h post poisoning, median (IQR) of individual sample ratios
  CPO/CPF × 1000: 4.2 (1.9–9.5)
[10]; 4–8 h post poisoning, median (IQR)
  CPO/CPF × 1000: 6.8 (4.3–14.0)
[10]; 8–16 h post poisoning, median (IQR)
  CPO/CPF × 1000: 17.5 (9.2–31.6)
[10]; 16–24 h post poisoning, median (IQR)
  CPO/CPF × 1000: 14.2 (10.5–42.6)
[10]; 24–36 h post poisoning, median (IQR)
  CPO/CPF × 1000: 28.6 (11.3–44.4)
[10]; 24–120 h, steady-state, high individuals
  ratio CPO/CPF, other individuals: > 0.05
[10]; 24–120 h, steady-state, low individuals
  ratio CPO/CPF, some individuals: below 0.01
[10]; 36–60 h post poisoning, median (IQR)
  CPO/CPF × 1000: 29.2 (14.4–70.7)
[10]; 60–84 h post poisoning, median (IQR)
  CPO/CPF × 1000: 37.3 (12.7–65.3)
[10]; 84–120 h post poisoning, median (IQR)
  CPO/CPF × 1000: 25.0 (15.4–53.6)
[10]; between 30 and 72 h
  ratio of CPO/CPF (apparent steady-state mean): 0.03
[10]; first few hours after ingestion
  ratio of CPO/CPF (mean): 0.005
[10]; period between 0 and 4 h after ingestion
  ratio of CPO/CPF: less than 0.005
[10]; period between 24 and 120 h
  ratio of CPO/CPF on average: ~0.03
RBC-AChE
  fraction of CPO capable of inhibiting AChE: roughly 2/3
